We go through three molecules from patent US20170281806A1, “CHELATOR-TARGETING LIGAND CONJUGATES FOR CARDIOVASCULAR IMAGING” (priority 2009, published 2017).

One data set has as its system LV. It counts as in vivo, dog. From the text:
In two dogs with right atrial pacing at 180 beats per minute (bpm) for 5 weeks, there was significant deterioration of cardiac ejection fraction at the 5 week timepoint with ejection fraction reduced to less than 25% in both cases.

Another data set concerns LAD zone. As to the kind of experiment: Ischemic memory, acute model: SPECT, ex vivo imaging, gamma well counting. It counts as in vivo, dog. The following applies: for activity in the LAD zone relative to the normal LCx zone (gamma well counter), FIG. 3: after reperfusion. The procedure: FIG. 2. Time line of protocol concerning ischemic memory. LAD flow was reduced by 75% tightening of a snare occluder in dogs to produce resting ischemia for 90 minutes followed by full perfusion. 99mTc-EC-glucosamine was injected 15 minutes after reflow with SPECT performed at one hour post injection.
In two dogs, LAD flow was reduced by 75% by tightening a snare occluder to produce resting ischemia for 90 minutes followed by full reperfusion. 99mTc-EC-glucosamine was injected 15 minutes after reflow with SPECT imaging performed at one hour post injection. No perfusion images were acquired in these studies, however, the perfusion image shown from another dog in the same position on the table is fused with the 99mTc-EC-glucosamine images for orientation purposes only (FIG. 2).
The heart slides were divided into 96 segments and counted in a gamma well counter for microsphere flow, Tl-201 activity, and 99mTc-EC-glucosamine uptake.

The test system of data set [1] is myocardium. The data set is described as follows: Ischemic memory, chronic model. The data set is classed as in vivo, dog. Particulars: LAD flow reduced 90% for 90 minutes. The procedure:
In a third dog, the protocol above was modified to examine 99mTc-EC-glucosamine uptake at later time points after reperfusion. In addition, the severity of the ischemic insult was increased such that LAD flow was reduced by 90% rather than 75% for 90 minutes. 99mTc-EC-glucosamine uptake was assessed at 48 hours and one week after reperfusion.

The subject of data set [2] is myocardium. The data set is classed as in vivo. The following applies: dog. How it is done:
In this model, one of the major coronary arteries, either the left anterior descending (LAD) or left circumflex (LCx) coronary artery and all visible collateral vessels are tied off for 120 minutes, followed by complete reflow of the vessels. The chest is closed and the dogs are recovered and followed for up to 8 weeks with MR and SPECT imaging. […] Autoradiography and gamma well counting of 99mTc activity is not possible when using a 99mTc perfusion agent at the same time as 99mTc-EC-glucosamine. […] It is possible that the improved labeling efficiency in the 72 hour and 1 week scans resulted from changes that were made in the instructions for reconsistituting the 99mTc-EC-glucosamine kits. […] This dog will undergo further imaging at 4 weeks and again at 7.5/8 weeks as described above.

“Also recorded” adds a separate entry of the source.

On to `CCOCC[PH+](CCOCC)CC[PH+](CCOCC)CCOCC.CCOCC[PH+](CCOCC)CC[PH+](CCOCC)CCOCC.[O]=[99Tc]=[O]` [tetrofosmin, technetium Tc-99m tetrofosmin, reference compound], for which, in the data set with LV (dogs, right atrial pacing 180 bpm for 5 weeks), the “uptake in the LV (SPECT)” value is on record as “not completely homogenous”.
Turning to `[201Tl]` [Tl-201, thallium-201, reference compound], in the data set on LAD zone, the “activity in the LAD zone relative to the normal LCx zone (gamma well counter), FIG. 3” value is reported as “slightly reduced”.
Regarding “99mTc-ethylenedicysteine (EC) glucosamine [99mTc-EC-glucosamine]”, the uptake after reperfusion result was “uptake was observed” with myocardium [1] (48 hours after reperfusion) and “no uptake” with myocardium [1] (one week after reperfusion). The “uptake in the heart (SPECT)” value in the data set with myocardium [2] (48 hours post myocardial infarction) is reported as “small focal hot spot”. In the data set with myocardium [2] (LCx occlusion, 72 hours post infarction, imaging 2 hours after injection), the “uptake in the posterior wall (SPECT)” value is reported as “large amount of 99mTc-EC-glucosamine uptake”. The “uptake in the myocardium (SPECT)” value with myocardium [2] (baseline before infarction) was “no 99mTc-EC-glucosamine uptake observed in the myocardium; also recorded: no 99mTc-EC-glucosamine was observed in the myocardium”. Also, in the data set on LAD zone (LAD flow reduced 75% for 90 minutes, injected 15 minutes after reflow, SPECT one hour post injection), the “uptake by in vivo SPECT” value is on record as “focal 99mTc-EC-glucosamine hot spot in the apex of the heart; also recorded: focal hotspot”. The “activity in the LAD zone relative to the normal LCx zone (gamma well counter), FIG. 3” value with LAD zone was “significantly higher”. Besides, the “uptake in mildly ischemic areas” value with LAD zone (flow reduced by 20-40% of normal) is “enhanced 99mTc-EC-glucosamine uptake”. The “activity relative to the normal zone, central ischemic zone” value with LAD zone (flow reduced by 60-80% of normal) is on record as “greater than 150%”. Further, in the data set with LAD zone (segments by degree of flow reduction during ischemia, FIG. 4), the “uptake in central and border zone ischemic areas” value was “enhanced”. Besides, the blood pool activity result in the data set with LV (dog, in vivo) is reported as “significant amount of blood pool activity”.
